One data set has as its system HUVEC. Nature of the data set: Inhibitory activity against VLA-4 mediated adhesion to human vein endothelial cells. It is filed as functional, cell-based.
Data set [1] can be described thus: Solubility in SGF buffer system. The class given is physicochemical.
Data set [2] is described as follows: Solubility in SIF buffer system. It is filed as physicochemical.
Data set [3] can be described thus: Permeability in Caco-2 assay at 10E-6. The settings on record: human, read-out: Activity. It is filed as ADME. For orientation: Passage across Caco-2 layers is used to estimate intestinal permeability.
Data set [4] is described as follows: Solubility in SIBLM buffer system. The class given is physicochemical.
Data set [5] can be described thus: Stability in rat plasma was determined. The class given is ADME.
The nature of data set [6]: Log Doctanol value by HPLC peak area analysis of aqueous and octanol phases at pH 4.5-6.5. It is filed as physicochemical.
Data set [7] is described as follows: Log Doctanol value by HPLC peak area analysis of aqueous and octanol phases at pH 6.5. The class given is physicochemical. The settings on record: octanol/aqueous phase, read-out: LogD6.5.
Data set [8] can be described thus: Solubility in SIF buffer system; ND= not detectable. It is filed as physicochemical. The settings on record: simulated gi fluid.
The nature of data set [9]: Log Doctanol value by HPLC peak area analysis of aqueous and octanol phases at pH 4.5. It is filed as physicochemical. The settings on record: octanol/aqueous phase.
Data set [10] is described as follows: Solubility in SGF buffer system; ND=not detectable. It is filed as physicochemical. The settings on record: simulated gi fluid.
Setting [11] is: octanol/aqueous phase, read-out: logD.

Converted amounts (≈) assume the structure as drawn.

The compound `CN(C)C(=O)Oc1ccc(C[C@H](NC(=O)[C@H]2N(S(=O)(=O)c3ccn(C)n3)CSC2(C)C)C(=O)O)cc1` displayed an IC50 in the data set on HUVEC of 6 nM. Moreover, the solubility in data set [1] was 3300 µg/mL (≈ 6120 µM); in data set [2], over 20000 µg/mL; in data set [4], 20000 µg/mL (≈ 37100 µM). Also, the Papp in data set [3] is over 0.07 ×10⁻⁶ cm/s.
On to `COCCOCCOC(=O)[C@H](Cc1ccc(OC(=O)N(C)C)cc1)NC(=O)[C@H]1N(S(=O)(=O)c2ccn(C)n2)CSC1(C)C`, for which, in data set [5], the half-life came out at 13.1 min. Besides, the solubility in data set [1] stood at 2830 µg/mL (≈ 4410 µM); in [2], 2400 µg/mL (≈ 3740 µM); in [4], 4650 µg/mL (≈ 7250 µM). Besides, in data set [3], the Papp was 2.03 ×10⁻⁶ cm/s. Moreover, the figures for the logD in data set [6] (setting [11]) and in [7] were 1.41 and 1.42, respectively.
`CN(C)C(=O)Oc1ccc(C[C@H](NC(=O)[C@H]2N(S(=O)(=O)c3ccn(C)n3)CSC2(C)C)C(=O)OCOC(=O)C(C)(C)C)cc1` gave a half-life in data set [5] of 2.82 min. Also, the values for the solubility in [1], in [8] and in [4] were 13 µg/mL (≈ 19.9 µM), “Not detectable” and 119 µg/mL (≈ 182 µM), respectively. The Papp in data set [3] turned out to be 2.49 ×10⁻⁶ cm/s. Also, the logD in [7] turned out to be 3.17; in data set [9], 3.1.
In the case of `CCOC(=O)[C@H](Cc1ccc(OC(=O)N(C)C)cc1)NC(=O)[C@H]1N(S(=O)(=O)c2ccn(C)n2)CSC1(C)C`, in data set [5], the half-life amounted to 8.08 min. Besides, the solubility in data set [1] stood at 629 µg/mL (≈ 1110 µM); in data set [2], 341 µg/mL (≈ 601 µM); in data set [4], 1180 µg/mL (≈ 2080 µM). The Papp in [3] turned out to be 4.24 ×10⁻⁶ cm/s. Moreover, the logD was 2 in data set [7] and 2.27 in data set [9].
Turning to `CC(C)OC(=O)[C@H](Cc1ccc(OC(=O)N(C)C)cc1)NC(=O)[C@H]1N(S(=O)(=O)c2ccn(C)n2)CSC1(C)C`, the half-life in [5] worked out at 10.9 min. In addition, the solubility in data set [1] was found to be 94.9 µg/mL (≈ 163 µM); in [2], 45.5 µg/mL (≈ 78.2 µM); in data set [4] it was 158 µg/mL (≈ 272 µM). Also, in data set [3], the Papp was 6.83 ×10⁻⁶ cm/s. For the same compound, the logD worked out at 2.47 in data set [7] and 2.45 in data set [9].
In [5], `CN(C)C(=O)Oc1ccc(C[C@H](NC(=O)[C@H]2N(S(=O)(=O)c3ccn(C)n3)CSC2(C)C)C(=O)OCC(C)(C)C)cc1` registered a half-life of 53.4 min. Further, the values for the solubility in [1], in data set [8] and in data set [4] were 0.334 µg/mL (≈ 0.548 µM), “Not detectable” and 6.97 µg/mL (≈ 11.4 µM), respectively. The Papp in data set [3] was found to be 4.52 ×10⁻⁶ cm/s. Further, the values for the logD in [6] (setting [11]) and in data set [6] (octanol/water) were 3.43 and 3.42, respectively.
With `CN(C)C(=O)Oc1ccc(C[C@H](NC(=O)[C@H]2N(S(=O)(=O)c3ccn(C)n3)CSC2(C)C)C(=O)OCCOc2ccccc2)cc1`, in [5], the half-life came out at 1.6 min. For the same compound, the solubility in data set [2] was 0.506 µg/mL (≈ 0.767 µM); in data set [10], “Not detectable”; in data set [4], 24 µg/mL (≈ 36.4 µM). Further, in [3], the Papp is 7.58 ×10⁻⁶ cm/s. Besides, the figures for the logD in data set [7] and in data set [9] were 3.34 and 3.21, respectively.

The term IC50 denotes the midpoint of a concentration-inhibition curve. Usually solubility stands for the dissolved amount per volume that the medium holds. Read a high solubility as much dissolved substance. As usually defined, the half-life is the time needed for the level to fall by half in the phase considered. Lower therefore signals rapid decline.

Source of the values: ChEMBL document CHEMBL1148230, “Synthesis, characterization and evaluation of pro-drugs of VLA-4 antagonists” (Bioorg Med Chem Lett, 2004).
